In US12576048B2, “Anti-cancer activity of adamantane derivatives” (The Regents of the University of California, priority 2018, dated 2026):

Tests used:
[1] = test system: CAL-27 squamous cell carcinoma cell line; test: MTT proliferation assay, CAL-27; assay type: cell-based, human
[2] = test system: B16-OVA melanoma tumor line; test: MHC Class I expression in B16-OVA by flow cytometry (Example 2); assay type: cell-based, murine; details: 24 hours at indicated concentrations; FIG. 15
B16-OVA melanoma = test: MTT proliferation assay, B16-OVA (Example 2); assay type: cell-based, murine; details: 48 hours; FIG. 16A
[3] = test system: AT-84 E7 squamous cell carcinoma; test: MTT proliferation assay, AT-84-E7 (Example 2); assay type: cell-based, murine; details: 48 hours; FIG. 16B
[4] = test system: MOSCC3 squamous cell carcinoma; test: MTT proliferation assay, MOSCC3 (Example 2); assay type: cell-based, murine; details: 48 hours; FIG. 16C
AT84-E7/E5 tumor cells = test: Tumor volume in mice inoculated with AT84-E7/E5 tumor cells; assay type: in vivo; details: 10 mg/kg IP once daily, 7 injections starting on day 8; FIG. 1A
Method: (§1) FIGS. 1A-1E are plots showing the effects of rimantadine or PEGylated rimantidine on tumor volume in different cancer models.
(§2) Mice were injected subcutaneously with 1.0 to 5.0×10^5 AT-84-E7, 1.5×10^5 B16-OVA, or 5.0×10^5 4T1 cells resuspended in 100 μl of PBS in the right flank. For orthotopic models, 1.0×10^5 AT-84-E7 or 1.0×10^6 4MOSC1 in 30 μl of PBS were injected into tongue. Tumor diameter was measured every 2 to 3 days with an electronic caliper and reported as volume using the formula; tumor volume (mm3)=(length×width2)/2. Once tumors become palpable, mice were treated with 200 μg of anti-PD-L1 antibody (BioXcell, West Lebanon, NH) via IP injection every 3 days for a total of three or four injections per mouse, or mice were treated with 10 mg/kg body weight of rimantadine (Sigma, St. Louis, MO) via IP injection daily for 7 days. For adoptive transfer experiments, first, single-cell suspension of spleen from OT-1 mice were cultured in media containing 10 ng/ml OVA SIINFEKL peptide (InvivoGen, San Diego, CA) and 2 ng/ml recombinant IL-2 (PeproTech, Rocky Hill, NJ) […], and then 4.0×10^6 cells were intravenously injected into B16-OVA-bearing mice.

B16-OVA tumor cells = test: Tumor volume in mice inoculated with B16-OVA tumor cells; assay type: in vivo; details: 10 mg/kg IP once daily, 7 injections starting on day 10; FIG. 1B, 1E
Method: as §1, §2

4T1 tumor cells = test: Tumor volume in mice inoculated with 4T1 tumor cells; assay type: in vivo; details: 10 mg/kg IP once daily, 7 injections starting on day 6; FIG. 1C
Method: as §1, §2

4MOSC1 tumor cells = test: Tumor volume in mice inoculated with 4MOSC1 tumor cells (orthotopic HNSCC model); assay type: in vivo; details: 10 mg/kg IP once daily, 7 injections once tumors palpable; FIG. 1D
Method: as §1, §2

[5] = test system: AT-84-E7 tumors which didn't express E5; test: Tumor volume in mice inoculated with AT-84-E7 cells not expressing E5 (empty vector); assay type: in vivo; details: rimantadine for one week; FIG. 2A vs 2B
Method: FIGS. 2A and 2B are plots showing the effects of rimantadine on tumor.
as §2

[6] = test system: B16-OVA cells co-cultured with B3Z cells; test: B3Z activation assay; assay type: cell-based; details: 100 μM rimantadine 24 hours, then 24 hours co-culture; FIG. 5
Method: FIG. 5 is a plot showing B3Z activation after rimantadine treatment (48 hours).
B16-OVA cells were seeded into 96-well plate and treated with 100 μM rimantadine for 24 hours, prior to addition of B3Z cells. After 24 hours of co-culture, medium was removed and 100 μl of lysis buffer [0.155 mM chlorophenol red β-D-galactopyranoside (CPRG) (Roche), 0.125% Nonidet P-40 Alternative (EMD-Calbiochem), and 9 mM MgCl2 (Sigma) in PBS] was added. After incubation for 4 hours at 37° C., the absorbance at 570 nm was determined on a TECAN infinite M200 microplate reader.

AT-84-E7 = test: BrdU cell cycle analysis, AT-84-E7; assay type: cell-based, murine; details: 24 hours; FIG. 8
Method: (§3) FIG. 8 has plots showing the BrdU cell cycle analyzed for 24 hours following treatment with rimantadine,
(§4) Cell cycle progression was analyzed on the basis of BrdU incorporation following […] cell staining with BrdU-APC and 7-AAD using BD Pharmingen BrdU Flow Kit. (BD, Franklin Lakes, NJ) according to the manufacture's protocol. Cells were analyzed using flow cytometry. Cell proliferation was assessed by using MTT [3-(4,5-dimethylthiazol-2-yl)-2,5-diphenyltetrazolium bromide]. First, cells were seeded in 96-well plate and cultured for 2-3 days. Next, culture media was replaced with fresh media containing 0.5 mg/ml of MTT (Sigma) and the plates were incubated for 4 hours at 37° C. Then, purple formazan crystals were dissolved in lysis buffer (4 mM HCl and 0.1% NP-40 in isopropanol) and the absorbance was recorded on a TECAN infinite M200 microplate reader (Tecan, Männedorf, Switzerland) at a wavelength of 570 nm with absorbance at 650 nm as reference.

B16-OVA = test: BrdU cell cycle analysis, B16-OVA; assay type: cell-based, murine; details: 24 hours; FIG. 8
Method: as §3, §4

[7] = test system: AT-84-E7 and B16-OVA models; test: Cell proliferation assay (MTT), FIG. 9; assay type: cell-based; details: 48 hours
Method: FIG. 9 has plots showing the cell proliferation assay (MTT), which was analyzed 48 hours following treatment with rimantadine.
as §4

T cells = test: T-cell proliferation assay using CFSE-labeled T-cells; assay type: cell-based; details: FIGS. 10A and 10B
From the text: FIGS. 10A and 10B are plots showing T-cell proliferation assay using CFSE-labeled T-cells simulated to proliferate in the presence or absence of rimantadine.

Stathmin = Stathmin mRNA expression by RT-qPCR; assay type: cell-based; details: 24 hours
Method: FIGS. 11A and 11B are plots showing Stathmin mRNA expression, which was analyzed 24 hours following treatment with rimantadine in AT-84-E7 cells and B16-OVA cells, respectively.
(§5) Total RNA were extracted using TRIzol Reagent (Invitrogen) and reverse transcribed with qScript cDNA Synthesis Kit (Quanta BioSciences, Beverly, MA) according to the manufacturer's instructions. Quantitative PCR analysis were conducted by using KAPA SYBR […] FAST (KAPA Biosystems, Wilmington, MA) on the 7900HT Fast Real-Time PCR System (Applied Biosystems, Foster City, CA).

Tau = Tau mRNA expression by RT-qPCR; assay type: cell-based; details: 24 hours; FIGS. 12A and B
Method: FIGS. 12A and 12B are plots showing Tau mRNA expression, which was analyzed 24 hours following treatment with rimantadine.
as §5

[8] = test system: CAL-27 squamous cell carcinoma cell line; test: BrdU cell cycle analysis, CAL-27; assay type: cell-based, human; details: rimantadine alone; FIG. 13
Method: (§6) FIG. 13 has plots showing the effect of rimantadine on human HNSCC lines as labeled. BrdU cell cycle analysis (upper) and MTT proliferation assay (lower).
as §4

[9] = test system: CAL-33 squamous cell carcinoma cell line; test: BrdU cell cycle analysis, CAL-33; assay type: cell-based, human; details: rimantadine alone; FIG. 13
Method: as §6, §4

[10] = test system: SCC-47 squamous cell carcinoma cell line; test: BrdU cell cycle analysis, SCC-47; assay type: cell-based, human; details: rimantadine alone; FIG. 13
Method: as §6, §4

[11] = test system: CAL-33 squamous cell carcinoma cell line; test: MTT proliferation assay, CAL-33; assay type: cell-based, human; details: rimantadine alone; FIG. 13
Method: as §6, §4

[12] = test system: SCC-47 squamous cell carcinoma cell line; test: MTT proliferation assay, SCC-47; assay type: cell-based, human; details: rimantadine alone; FIG. 13
Method: as §6, §4

[13] = test system: murine and human cell lines engineered to express HPV16 E5; assay type: cell-based; details: 24 hours; FIG. 14
[14] = test system: multiple cell lines (AT-84-E7, B16-OVA, 4T1, B16, MC38); details: rimantadine 100 μM, 48 hours or 24 hours; FIGS. 3A-3E, 4A-D
Method: FIGS. 3A-3E are plots showing MHC I expression or antigen-presentation (H-2Kb/[sequence]) as analyzed by flow cytometry after rimantadine treatment (100 μM, 48 hours). FIG. 3A is a plot showing MHC I expression for the AT-84-E7 model. FIG. 3B is a plot showing MHC I expression for the B16-OVA model. FIG. 3C is a plot showing antigen-presentation (H-2Kb/[sequence]) for the B16-OVA model. FIG. 3D is a plot showing MHC I expression for the 4T1 model.
FIGS. 4A-4D are plots showing MHC expression in tumor cells. FIGS. 4A and 4B show MHC I expression analyzed by flow cytometry 48 hours after rimantadine treatment for B16 and MC38 cells, respectively. FIGS. 4C and 4D are plots showing expression of MHC I and antigen presentation (H-2Kb/[sequence]), respectively, 24 hours after rimantadine treatment in B16-OVA cells.
After obtaining single-cell suspensions, each sample was incubated with an Fc blocking reagent (anti-CD16/32 antibody; BioLegend, San Diego, CA). Following Fc blockade, cells were stained with fluorescent-labeled antibodies [BioLegend, BD Bioscience (San Jose, CA), or eBiosciences (Thermo Fisher Scientific, Waltham, MA)]. LIVE/DEAD Fixable Cell Staining Kit (Invitrogen) was used for viability staining. […] Cells were analyzed using a BD FACS Aria II or LSR II flow cytometer (BD). Data was analyzed on FlowJo (FlowJo, LLC, Ashland, OR). […]

RAW264.7 cell line = details: 48 hours after treatment
Method: FIGS. 7A and 7B are plots showing cell surface expression of MHC I (H-2Kd) and MHC II (I-A/I-E), respectively, on rimantadine-treated RAW264.7 48 hours after treatment. Data are shown as mean±S.E.M. Statistics were done using an unpaired t-test.
After obtaining single-cell suspensions, each sample was incubated with an Fc blocking reagent (anti-CD16/32 antibody; BioLegend, San Diego, CA). Following Fc blockade, cells were stained with fluorescent-labeled antibodies [BioLegend, BD Bioscience (San Jose, CA), or eBiosciences (Thermo Fisher Scientific, Waltham, MA)]. LIVE/DEAD Fixable Cell Staining Kit (Invitrogen) was used for viability staining. For intracellular staining, cells were processed with Foxp3/Transcription Factor Fixation/Permeabilization Concentrate and Diluent (Invitrogen). Cells were analyzed using a BD FACS Aria II or LSR II flow cytometer (BD). Data was analyzed on FlowJo (FlowJo, LLC, Ashland, OR). For each antibody, the following clones were used: CD45.2 (104), CD3e (145-2C11), CD4 (RM4-5), CD8a (5H10), CD25 (3C7, PC61), CD44 (IM7), CD62L (MEL-14), IFN-γ (XMG1.2), Foxp3 (MF23), H-2Kb (AF6-88.5), H-2Kk (36-7-5), H-2Kd (SF1-1.1), H-2Kb/[sequence] (eBio25-D1.16), I-A/I-E (2G9), CD49b (DX5), CD11b (M1/70), FLAG (L5), CD31 (MEC13.3), NK-T/NK Cell Antigen (U5A2-13), CD102 (3C4 (MIC2/4)), CD62P (RMP-1), CD105 (MJ7/18), CD106 (429 (MVCAM.A)), and CD162 (2PH1).

For `CC12CC3CC(C)(C1)CC(N)(C3)C2` [memantine], the “proliferation (MTT)” value ([1]; 48 hours, FIG. 17A) was “inhibited proliferation”, the “proliferation (MTT)” value ([1]; 72 hours, FIG. 17B) was “inhibited proliferation” and the “MHC Class I Expression” value [2] was “upregulated”. The “proliferation (MTT)” value (B16-OVA melanoma) was “inhibit proliferation”, the “proliferation (MTT)” value [3] was “inhibit proliferation” and the “proliferation (MTT)” value [4] was “inhibit proliferation”.

For `CC(N)C12CC3CC(CC(C3)C1)C2` (centres unmarked) [rimantadine], the “tumor size compared to control groups” value (AT84-E7/E5 tumor cells) was “statistically significant decreases in tumor size”, the “tumor sizes compared to control groups” value (B16-OVA tumor cells) was “statistically significant decreases in tumor sizes” and the “tumor sizes compared to control groups” value (4T1 tumor cells) was “statistically significant decreases in tumor sizes”. For the same molecule, the “anti-tumor activity (tumor volume)” value (4MOSC1 tumor cells) was “significant anti-tumor activity”, the “anti-tumor effect (tumor volume) relative to E5-expressing tumors” value [5] was “decreased” and the “increase in recognition of model tumor antigen by B3Z cells” value [6] was 3 fold. For the same molecule, the “GO/G1 cell cycle arrest” value (AT-84-E7) was “significant increases”, the S phase (AT-84-E7) was “significant decreases” and the “GO/G1 cell cycle arrest” value (B16-OVA) was “significant increases”. The S phase (B16-OVA) was “significant decreases”, the “cell proliferation (MTT)” value [7] was “Suppression of cell proliferation” and the “proliferation of T cells” value (T cells) was “no significant effect”. For the same molecule, the “Stathmin mRNA expression” value (Stathmin; AT-84-E7 cells, FIG. 11A) was “significant decreases”, the “Stathmin mRNA expression” value (Stathmin; B16-OVA cells, FIG. 11B) was “significant decreases” and the “Tau mRNA expression” value (Tau) was “Decreases”. The “cell cycle arrest (BrdU)” value [8] was “Significant cell cycle arrest”, the “cell cycle arrest (BrdU)” value [9] was “Significant cell cycle arrest” and the “cell cycle arrest (BrdU)” value [10] was “Significant cell cycle arrest”. For the same molecule, the “proliferation (MTT)” value ([1]; 48 hours, FIG. 17A) was “inhibited proliferation”, the “proliferation (MTT)” value ([1]; 72 hours, FIG. 17B) was “inhibited proliferation” and the “proliferation (MTT)” value ([1]; rimantadine alone, FIG. 13) was “decreased proliferation”. For the same molecule, the “proliferation (MTT)” value [11] was “decreased proliferation”, the “proliferation (MTT)” value [12] was “decreased proliferation” and the “cell cycle arrest (BrdU)” value [13] was “induced cell cycle arrest”. The “MHC Class I Expression” value [2] was “upregulated”, the “proliferation (MTT)” value (B16-OVA melanoma) was “inhibit proliferation” and the “proliferation (MTT)” value [3] was “inhibit proliferation”. For the same molecule, the “proliferation (MTT)” value [4] was “inhibit proliferation”, the “surface expression of MHC” value [14] was “Significant increases” and the “cell surface expression of MHC I” value (E5-positive AT-84-E7) was “restored”. The “MHC class I surface expression” value (RAW264.7 cell line; H-2Kd, FIG. 7A) was “significant increases” and the “MHC class II surface expression” value (RAW264.7 cell line; I-A/I-E, FIG. 7B) was “significant increases”.
